Test results: patent publication US12214036B2, “Combination therapy comprising AXL/MER and PD-1/PD-L1 inhibitors” (Incyte Corporation, priority 2020, dated 2025)

Assays:
MC38 tumor = MC38 tumor model, combination with checkpoint blockade; assay type: in vivo, C57BL/6 mice
Excerpt: MBT-2 cells were obtained from the Japanese Collection of Research Bioresources Cell Bank and were maintained in DMEM supplemented with 10% FBS. MC38 cells were obtained from the NCI. 4T1 cells were obtained from ATCC and maintained in RPMI media supplemented with 10% FBS. For MBT-2 experiments, 5×10^5 MBT-2 cells were inoculated subcutaneously into the right hind flank of 6- to 8-week-old C3H mice or athymic nude mice (Charles River Laboratories, Wilmington, Mass.). For MC38 studies, 12-week old female C57BL/6 mice were inoculated with brei of MC38 tumors (in-vivo passage 6) into the right hind flank. For 4T1 studies, 7.5×10^5 4 T1 cells were inoculated subcutaneously into the right hind flank of 6- to 8-week-old female BALB/c mice or athymic nude mice (Charles River Laboratories). Mice were randomized by tumor volume with n=10-12 per group. […] Mice were monitored for tumor growth and overt tolerability over the course of the experiment. […] Tumor volume was calculated using the formula (L×W^2)/2, where L and W refer to the length and width dimensions, respectively. Tumor growth inhibition (TGI) was calculated using the formula (1−(VT/VC))×100, where VT is the tumor volume of the treatment group on the last day of treatment, and VC is the tumor volume of the control group on the last day of treatment. […]

[1] = tested on: BAF3 cells expressing AXL; experiment: BAF3-AXL cell proliferation assay (CellTiter-Glo); assay type: cell-based; details: Mus musculus, 48 hours, 2% FBS
Excerpt: To evaluate the cellular potency and selectivity within the TAM receptor family, mouse BAF3 cell lines with stable expression of AXL, MER, or TYRO3 were generated.
The cytoplasmic domain of AXL, MER, or TYRO3 fused with dimerization sequence and HA tag was cloned into a pMSCV (murine stem cell virus) vector with a puromycin-resistance marker to generate three constructs individually by electroporation into BAF3 cells. Single clones that were IL-3-independent and puromycin-resistant were selected and characterized. To evaluate effects on BAF3 cell proliferation, 1000 cells/well of BAF3, BAF3-AXL, BAF3 MER, or BAF3-TYRO3 cells were treated in the presence or absence of Compound 1 at various concentrations (10 concentration points with a three-fold dilution factor from the highest concentration of 10 μM) diluted in RPMI-1640 with 2% FBS for 48 hours in a 384-well plate. Cell viability was measured by ATP assay (CellTiter-Glo Assay, Promega, Madison, Wis.) according to the manufacturer's procedure. The data were converted to percent inhibition relative to DMSO control, and IC50 curves were fitted using GraphPad Prism software.

SMILES: CC(C)C(=O)N1CCC(c2cc(-c3ccc(NC(=O)c4cn(C(C)C)c(=O)n(-c5ccccn5)c4=O)cc3)c3c(N)ncnn23)CC1 [Compound 1, N-(4-(4-Amino-7-(1-isobutyrylpiperidin-4-yl)pyrrolo[1,2-f][1,2,4]triazin-5-yl)phenyl)-1-isopropyl-2,4-dioxo-3-(pyridin-2-yl)-1,2,3,4-tetrahydropyrimidine-5-carboxamide]
- antitumor activity (tumor volume) (MC38 tumor; MC38 in C57BL/6 mice, Compound 1 oral BID, anti-PD-L1 15 mg/kg i.p. twice a week, FIG. 8A): single-agent antitumor activity
- proliferation of CD4+ and CD8+ tumor-infiltrating lymphocytes (Ki67+) (MC38 tumor; MC38 tumors, FIGS. 8B and 8C): induced proliferation
- GI50 [1]: 16 ± 11 nM
